The source of these data is patent US20090060928A1, “Topical Toll Like Receptor Ligands as Vaccine Adjuvants” (priority 2006, published 2009).

One data set relates to anti-OVA IgG antibodies. The experiment in a line: Anti-OVA antibodies in serum by ELISA after sc OVA immunization with adjuvant. The format is in vivo, C57BI/6 mice. The text has this:
Fig. A: Groups of mice were immunized to OVA alone or followed by topical application of imiquimod to the site of immunization 3×/wk. or to OVA in ILK-2 liposomes. One week following 4 weekly immunizations, sera was collected and tested for anti-OVA IgG antibodies by ELISA. Anti-OVA IgG responses was greater in mice treated with imiquimod than in those immunized to OVA alone. It was as strong as that induced by IL-2 liposomes as the adjuvant. Fig. B: One week following 4 weekly immunizations, IgG1, IgG2a, IgG2b, and IgG3 anti-OVA antibodies was measured in these groups by ELISA, using subclass specific antibodies as probes.
(§1) FIG. 3A: Groups of mice were immunized to OVA alone or followed by topical application of imiquimod to the site of immunization 1×/wk. or to a site distal to the immunization. One week following 4 weekly immunizations, sera was collected and tested for anti-OVA IgG subclass antibodies by ELISA. Anti-OVA IgG responses was greater in mice treated with imiquimod both locally and distally than in those immunized to OVA alone. FIG. 3B: Triplicate mice were sacrificed 1 week after 4 immunizations and cellular immune responses to OVA-expressing target E.G7-OVA cells determined by ELIspot assay
(§2) In more detail, groups of 10 C57BI/6 mice were immunized sc weekly×4 to 0.1 mg of ovalbumin (OVA). Some groups were in addition treated with 5% imiquimod cream applied topically to the immunization site once or 3×/week. Control groups were immunized to PBS, to OVA encapsulated into IL-2 liposomes (which we have previously shown is one of the strongest adjvuanrts available), or to irradiated E.G7-OVA cells (a powerful stimulator of anti-OVA T-cell responses). Serum was collected from each mouse at baseline and following the 4th immunization, pooled by immunization group, and assayed for antibodies to OVA by ELISA.
In these experiments, groups of […] mice were immunized sc weekly×4 to 0.1 mg of ovalbumin (OVA) given in 0.1 ml of PBS injected in the lower abdominal region. One group of mice was also treated with 5% imiquimod applied topically to the skin at a site distal (in the nape of the neck) to the immunization site 1×/week.

The next data set deals with E.G7-OVA cells. The experiment in a line: ELISPOT (gamma-interferon release) of spleen cells for T-cell response to OVA positive target cells. The format is in vivo, C57BI/6 mice. To be noted: for cellular response to OVA by ELISPOT: FIG. 3B; for T-cell (cellular) response by ELISPOT: FIG. 2A.
Description: FIG. 1A: Mice were immunized to OVA with or without topical application of imiquimod treatment 1× or 3×/wk following each immunization. Spleen cells were collected from each group 1 week following 4 immunizations, and tested by ELISPOT (based on gamma-interferon release) for T-cell response to OVA positive target cells (E.G7-OVA). FIG. 2B Mice were immunized to OVA with topical application of imiquimod 3×/week or with OVA encapsulated into IL-2 liposomes. Imiquimod boosted T-cell responses more strongly than IL-2 liposomes.
as §1, §2
Imiquimod boosted in particular Ig2a and IgG2b responses which were almost undetectable in mice immunized to OVA alone (see FIG. 1 B). This is consistent with the known capacity of this agent to preferentially boost Th1 responses. […] No T-cell responses were detectable in mice immunized similarly to OVA alone.
By contrast, no significant T-cell responses above PBS controls were detectable in mice immunized similarly to OVA alone. We have not studied the adjuvant activity of other TLR receptor ligands such as resiquimod and CpG ODN applied topically away from the immunization site. […] Thus, it is reasonable to expect that all of these will also retain adjuvant activity when applied topically directly over, or away, from the immunization site. Because their specific mechanism of action differs from that of imiquimod, they may have stronger adjuvant activity or may be better able to enhance specific type of immune responses than imiquimod. Combinations of TLR ligands may be able to enhance stronger or broader type of immune response than any one individual TLR ligand alone. This invention is intended to cover these different possibilities.

Another data set has as its system OVA positive tumor cells. The experiment in a line: Vaccine-induced tumor protective immunity against lethal challenge. To be noted: 5% cream topically over site of sc OVA immunization. The format is in vivo, mice. The text has this:
Importantly, the potency of imiquimod was as great as that of the strongest adjuvant we have studied to date in mice but with less local toxicity.

Data set [1] can be described thus: Local toxicity of the adjuvant. The format is in vivo. Particulars: adjuvant with sc OVA immunization.
[2] abbreviates: topical imiquimod at immunization site, vs OVA only, FIG. 1B.

Turning to `CC(C)Cn1cnc2c(N)nc3ccccc3c21` [imiquimod], the “overall IgG anti-OVA antibody response” value in the data set with anti-OVA IgG antibodies (OVA 0.1 mg sc weekly x4 + topical imiquimod at immunization site 3x/wk, vs OVA alone, FIG. 1A) is given as “considerably greater”. The results for the “IgG2a titer, times stronger than OVA alone” value in the data set with anti-OVA IgG antibodies (distal imiquimod treatment) and in the data set on anti-OVA IgG antibodies (local imiquimod treatment) were 25 times and 125 times, respectively. The “IgG2b titer, stronger than OVA alone” value with anti-OVA IgG antibodies (distal imiquimod treatment) and in the data set with anti-OVA IgG antibodies (local imiquimod treatment) was 125 each time. In addition, the “IgG1 anti-OVA antibody response” value in the data set on anti-OVA IgG antibodies (setting [2]) was “reduced”. In addition, the “IgG2a anti-OVA antibody response” value with anti-OVA IgG antibodies (setting [2]) is listed as “markedly boosted”. The “IgG2b anti-OVA antibody response” value in the data set with anti-OVA IgG antibodies (setting [2]) was “markedly boosted”. In addition, the “anti-OVA IgG subclass response” value with anti-OVA IgG antibodies (topical imiquimod both local and distal to vaccine injection site, vs OVA alone, FIG. 3A) was “considerably greater”. The “cellular response to OVA by ELISPOT” value with E.G7-OVA cells (distal application of imiquimod) and with E.G7-OVA cells (local application of imiquimod) was “strong cellular responses” throughout. Besides, the “T-cell (cellular) response by ELISPOT” value in the data set on E.G7-OVA cells (imiquimod applied to immunization site 1x/wk following each immunization) is recorded as “slight response”; in the data set with E.G7-OVA cells (imiquimod applied to immunization site 3x/week) it was “very strong response”. Further, in the data set on E.G7-OVA cells (topical imiquimod 3x/week vs OVA in IL-2 liposomes, FIG. 2B), the “T-cell response compared with IL-2 liposomes” value was “more potent stimulator of T-cell responses than IL-2 liposomes”. Besides, the “vaccine-induced tumor protective immunity” value with OVA positive tumor cells is recorded as “markedly increased”. Besides, in data set [1], the local toxicity result was “no toxicity at all”.
